Laboratory results published in US20070134731A1, “PROTEOMICS BASED METHOD FOR TOXICOLOGY TESTING” (priority 2002, published 2007).
“Also recorded” adds a separate entry of the source.

Tests used:
rats [1] = conditions: in rats; cited from earlier work
rats [2] = test: toxicant exposure of rats; modified proteins isolated from serum (immunoaffinity, 2D gel electrophoresis, LC/MS); type: in vivo; conditions: for modified proteins found in serum of treated animals, not found in the control group: rat serum, CCl4 0.1 and 1.0 mL/kg or ozone 0.8 and 2.0 ppm, specimens at 0-24 hours, anti-nitrotyrosine, chlorotyrosine, methionine sulfoxide resins, LC/MS
Description: Experimental groups consisted of three experimental and two control animals at each dose and specimens were collected at zero, one, two, four, eight, sixteen and twenty-four hours following ozone administration. In another experimental series, CCl4 was administered at a level of 0.1 and 1.0 mL/kg to rats to induce liver damage, and specimens were collected at time points as described above. […] Therefore, these high abundance proteins are preferably eliminated from serum samples prior to further processing.
In this experimental series, the specimens were purified by passing them over affinity resins containing antibodies against whole rat serum proteins and collecting the eluate. This purification methodology was effective in removing a significant amount of the high abundant serum proteins, which typically have a molecular weight in the range of 49-80 kiloDalton. […] Therefore, it was determined that concentration of the sample could be carried out very effectively by a process of molecular weight sieving which retained low molecular weight proteins (typically 50 kiloDalton and below) and excluded high molecular weight proteins. Such sieving was effectively accomplished utilizing a Superdex 75 column with a sample loading volume of 10% of the bed volume. Processes of this type have the advantage of being cheaper and faster than affirity resin based processes.
Once the concentration of high abundance serum proteins was decreased, the tissue proteins were purified from serum by immunoaffinity resins using antibodies to nitrotyrosine, chlorothyosine and methionine sulfoxide. […] Samples of interest were excised from the gel and those with sufficient concentration were analyzed by LC/MS.

| SMILES | organ toxicity (rats [1]) | modified proteins found in serum of treated animals, not found in the control group (rats [2]) | organ damage (rats [2]; rats breathing ozone at 0.8 and 2.0 ppm) |
| --- | --- | --- | --- |
| O=C1CCC(=O)N1c1cc(Cl)cc(Cl)c1 [NDPS, N-(3,5-dichlorophenyl) succinimide] | toxic to the kidney |  |  |
| O=[O+][O-] [ozone] | toxic to the lungs | four proteins of interest were found | Lung damage was produced |
| ClC(Cl)(Cl)Cl [CCl4, carbon tetrachloride] | known hepatotoxicant | three out of the seven peptides from the CCl4 group were associated with mitochondria; also recorded: peroxiredoxin |  |
